According to US9610281B2 (priority 2012, dated 2017):

Columns and labels:
CD-1 mice [1] = assay: Thermal radiation tail-flick experiment I in mice (analgesic effect); type: in vivo; settings: for Tail-flick threshold: injected into abdominal cavity, 30 min after dosing, cut-off 22 sec
Procedure: Thermal Radiation Tail-flick Experiment I in Mice (Tail-flick assay): to Evaluate the Analgesic Effect In Vivo of the Compounds of the Present Invention.
(§1) Select CD-1 mice (with the original weight being 30-40 g) and divide them into 6 groups (solvent group, morphine group, 1-THP group and DHCB groups with different doses: 5, 10, and 40 mg/kg), each including 9-11 mice. Place mice tails on the thermal radiation tail-flick apparatus and direct the light beam at ⅓ of the mice tails. First determine the basic pain thresholds of each group of mice, then inject the test samples into the abdominal cavities of the mice respectively, and after 30 min, re-determine the mice's pain thresholds. The irradiation time was no more than 22 sec. See Table 2 for the determination results.

dopamine D2 receptor = target: T1, dopamine D2 receptor (Homo sapiens, UniProt P14416); assay: FLIPR Ca2+ assay, antagonist of dopamine D2 receptor in transiently transfected HEK293T cells; type: cell-based; settings: for antagonist effect on dopamine D2 receptor: intracellular Ca2+, vs DMSO blank
T1 construct: expressed in transfected cells; host or cells: HEK293T (transiently transfected)
T1 sequence (P14416 whole entry, species assumed): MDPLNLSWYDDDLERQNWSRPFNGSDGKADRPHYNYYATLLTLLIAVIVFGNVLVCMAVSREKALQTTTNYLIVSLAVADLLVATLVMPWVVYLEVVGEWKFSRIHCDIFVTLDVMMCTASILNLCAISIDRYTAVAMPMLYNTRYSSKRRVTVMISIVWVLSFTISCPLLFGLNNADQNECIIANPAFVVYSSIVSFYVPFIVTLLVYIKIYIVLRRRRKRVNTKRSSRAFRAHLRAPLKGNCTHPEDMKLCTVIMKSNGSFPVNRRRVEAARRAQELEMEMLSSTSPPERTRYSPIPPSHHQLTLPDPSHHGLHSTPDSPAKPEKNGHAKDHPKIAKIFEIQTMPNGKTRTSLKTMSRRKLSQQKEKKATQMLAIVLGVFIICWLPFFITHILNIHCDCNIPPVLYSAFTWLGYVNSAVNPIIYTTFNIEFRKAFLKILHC
Procedure: (§2) Experimental scheme: the cells used to express μ opioid receptors in this research are stably transfected human embryonic kidney 293T cells (HEK293T); the dopamine receptor applied is transiently transfected HEK293T. In this scheme, part of the berberine derivatives obtained in the present invention were added to the cells that have expressed with corresponding receptors, and FLIPR (Fluorometric Imaging Plate Reader; Molecular Devices Corp) was applied to screen and identify their functions. Specifically: inoculate cells to a 96-well cell culture plate coated with poly-D-lysme based on 80,000 per well, after 24 hours, remove the medium, add 100 μl fluorescent dye solution (2 μM Fluo-4 AM dissolves first in pluronic acid and then in the buffer composed of haploid Hank's buffer and 20 mM HEPES, with pH 7.4) to each well and keep it at 37° C. for 1 hour, then wash the cells with the buffer three times. Dissolve the compounds to be tested with DMSO and put them in a 96-well plate, apply FLIPR to automatically add samples to the cell culture plate and incubate for 3 min (for the tests of agonist of μ-opioid receptor) or 10 min (for the tests of antagonist of dopamine receptor). Then perform fluorescence detection under the wavelength of 520 nm and 488 nm, thus monitoring the concentration of Ca^2+ in the cells.
(§3) The experimental scheme is the same as that in example 1, except that when adding, dilute the compounds to be tested with buffer to different concentrations, so as to detect responses under different doses. This method has been used to test DHCB effect on μ-opioid receptors and 5 dopamine receptors, with the results as shown in FIG. 3 and Table 1. […] In addition, μ-opioid receptor's weak synergism can further enhance the analgesic effect of DHCB.

μ opioid receptor = target: T2, μ opioid receptor (Homo sapiens, UniProt P35372); assay: FLIPR Ca2+ assay, agonist of μ opioid receptor in stably transfected HEK293T cells; type: cell-based; settings: for agonist effect on μ opioid receptor: intracellular Ca2+, vs DMSO blank
T2 construct: expressed in transfected cells; host or cells: HEK293T (stably transfected)
T2 sequence (P35372 whole entry, species assumed): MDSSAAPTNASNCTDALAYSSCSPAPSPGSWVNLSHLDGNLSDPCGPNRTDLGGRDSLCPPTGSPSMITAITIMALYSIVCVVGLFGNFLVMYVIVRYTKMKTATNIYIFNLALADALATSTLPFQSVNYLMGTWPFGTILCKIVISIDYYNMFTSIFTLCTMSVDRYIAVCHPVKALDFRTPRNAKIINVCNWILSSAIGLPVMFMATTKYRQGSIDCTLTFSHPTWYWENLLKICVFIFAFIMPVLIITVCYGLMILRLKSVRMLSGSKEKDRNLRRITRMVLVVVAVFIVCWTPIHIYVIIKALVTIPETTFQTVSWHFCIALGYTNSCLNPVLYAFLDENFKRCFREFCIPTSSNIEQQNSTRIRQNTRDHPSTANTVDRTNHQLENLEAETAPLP
Procedure: as §2, §3

Dopamine D1 = target: T3, Dopamine D1 (Homo sapiens, UniProt P21728); assay: FLIPR Ca2+ assay, antagonist of dopamine D1 receptor in transiently transfected HEK293T cells; type: cell-based
T3 construct: expressed in transfected cells; host or cells: HEK293T (transiently transfected)
T3 sequence (P21728 whole entry): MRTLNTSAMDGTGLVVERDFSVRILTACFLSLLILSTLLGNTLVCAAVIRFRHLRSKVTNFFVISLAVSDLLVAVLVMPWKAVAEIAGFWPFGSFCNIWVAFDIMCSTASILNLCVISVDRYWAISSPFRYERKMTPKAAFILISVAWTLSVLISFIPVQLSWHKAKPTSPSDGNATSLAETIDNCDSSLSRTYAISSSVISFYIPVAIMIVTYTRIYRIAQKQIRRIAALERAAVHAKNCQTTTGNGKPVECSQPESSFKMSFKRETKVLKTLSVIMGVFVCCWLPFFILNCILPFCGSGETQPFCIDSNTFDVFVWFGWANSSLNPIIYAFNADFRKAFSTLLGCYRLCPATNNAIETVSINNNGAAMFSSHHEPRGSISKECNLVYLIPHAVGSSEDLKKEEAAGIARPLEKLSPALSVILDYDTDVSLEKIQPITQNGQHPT
Procedure: as §2, with “cells. […]” for “cells.”

Dopamine D3 = target: T4, Dopamine D3 (Homo sapiens, UniProt P35462); assay: FLIPR Ca2+ assay, antagonist of dopamine D3 receptor in transiently transfected HEK293T cells; type: cell-based
T4 construct: expressed in transfected cells; host or cells: HEK293T (transiently transfected)
T4 sequence (P35462 whole entry): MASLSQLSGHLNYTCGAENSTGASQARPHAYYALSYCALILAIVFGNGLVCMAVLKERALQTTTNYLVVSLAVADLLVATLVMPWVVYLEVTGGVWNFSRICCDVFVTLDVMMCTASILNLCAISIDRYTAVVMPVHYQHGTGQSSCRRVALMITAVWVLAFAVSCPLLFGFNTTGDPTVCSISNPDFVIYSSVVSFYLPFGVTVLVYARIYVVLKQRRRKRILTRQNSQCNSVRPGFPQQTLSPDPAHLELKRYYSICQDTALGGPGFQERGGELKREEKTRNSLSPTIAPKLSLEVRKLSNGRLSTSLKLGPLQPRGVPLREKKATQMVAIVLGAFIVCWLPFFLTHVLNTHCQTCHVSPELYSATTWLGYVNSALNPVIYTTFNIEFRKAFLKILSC
Procedure: as §2, with “cells. […]” for “cells.”

Dopamine D4 = target: T5, Dopamine D4 (Homo sapiens, UniProt P21917); assay: FLIPR Ca2+ assay, antagonist of dopamine D4 receptor in transiently transfected HEK293T cells; type: cell-based
T5 construct: expressed in transfected cells; host or cells: HEK293T (transiently transfected)
T5 sequence (P21917 1-419): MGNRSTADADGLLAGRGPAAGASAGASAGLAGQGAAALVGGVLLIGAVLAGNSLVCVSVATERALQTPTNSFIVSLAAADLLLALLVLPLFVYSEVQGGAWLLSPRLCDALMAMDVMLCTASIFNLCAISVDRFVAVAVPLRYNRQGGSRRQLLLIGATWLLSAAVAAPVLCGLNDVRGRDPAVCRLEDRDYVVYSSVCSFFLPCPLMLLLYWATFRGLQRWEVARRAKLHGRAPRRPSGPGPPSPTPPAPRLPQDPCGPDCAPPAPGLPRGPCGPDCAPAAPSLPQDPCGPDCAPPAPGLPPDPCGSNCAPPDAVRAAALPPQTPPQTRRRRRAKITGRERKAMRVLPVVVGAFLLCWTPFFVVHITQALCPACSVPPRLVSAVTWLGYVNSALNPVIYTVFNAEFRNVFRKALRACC
Procedure: as §2, with “cells. […]” for “cells.”

Dopamine D5 = target: T6, Dopamine D5 (Homo sapiens, UniProt P21918); assay: FLIPR Ca2+ assay, antagonist of dopamine D5 receptor in transiently transfected HEK293T cells; type: cell-based
T6 construct: expressed in transfected cells; host or cells: HEK293T (transiently transfected)
T6 sequence (P21918 whole entry): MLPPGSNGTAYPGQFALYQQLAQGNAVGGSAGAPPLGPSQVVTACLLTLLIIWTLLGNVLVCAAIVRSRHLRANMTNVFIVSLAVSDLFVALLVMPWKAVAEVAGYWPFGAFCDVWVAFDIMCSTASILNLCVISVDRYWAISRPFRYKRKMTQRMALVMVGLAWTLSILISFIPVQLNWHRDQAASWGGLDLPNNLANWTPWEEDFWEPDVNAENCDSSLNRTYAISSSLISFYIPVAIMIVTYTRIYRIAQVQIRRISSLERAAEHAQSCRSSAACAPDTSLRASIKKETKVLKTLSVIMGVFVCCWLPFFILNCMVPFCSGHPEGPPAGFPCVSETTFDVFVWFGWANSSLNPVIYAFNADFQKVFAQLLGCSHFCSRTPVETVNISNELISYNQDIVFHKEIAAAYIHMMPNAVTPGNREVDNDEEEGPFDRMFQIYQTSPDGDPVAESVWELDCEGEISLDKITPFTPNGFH
Procedure: as §2, with “cells. […]” for “cells.”

CD-1 mice [2] = assay: Thermal radiation tail-flick experiment II in mice (duration time of analgesic effect); type: in vivo; settings: pain thresholds within 6 hours; DHCB 20 and 40 mg/kg
Procedure: Thermal Radiation Tail-flick Experiment II in Mice (Tail-flick Assay): to Evaluate the Duration Time of the Analgesic Effect In Vivo of the Compounds of the Present Invention.
as §1, with “group,” for “group, 1-THP group”, “doses:” for “doses: 5,”, “10, 20” for “10,”, “determine” for “after 30 min, re-determine”, “thresholds within 6 hours according to time points.” for “thresholds.”, “sec.” for “sec. See Table 2 for the determination results.”

CD-1 mice [3] = assay: Formalin pain experiment in mice; type: in vivo; settings: 5% formalin 15 min after drug
Procedure: Activity Example 5: to Evaluate the Analgesic Effect In Vivo of the Compounds of the Present Invention Through Formalin Pain Experiment in Mice.
Select CD-1 mice (with the original weight being 30-40 g) and divide them into 4 groups (solvent group, morphine group, and DHCB groups with different doses: 5 and 10 mg/kg), each including 9-11 mice. Place hind paws of the mice that are marked with formalin injection into the cages for 15-30 min. Inject drugs of corresponding doses into each mouse, and after 15 min, infuse 5% formalin solution subcutaneously into the underside of marked paw feet. The mice soon began to lick or bite their injected feet. Keep observation for 50 min, and record mice feet-licking time within phase I (0-5 min) and phase II (10-50 min).

mice = assay: Drug resistance experiment (mice tail-flick under thermal radiation, 7 days); type: in vivo; settings: successive 7 days, DHCB 10 mg/kg into abdominal cavity, thresholds every other day
Procedure: Drug resistance is a defect existing in many commonly used analgesics, which constitutes great limitations on their use. This experiment studies the drug resistance of DHCB through mice tail-flick under thermal radiation. During the experiment, DHCB (10 mg/kg) had been injected into the abdominal cavity of the mice for successive 7 days and the mice's pain thresholds had been detected every other day.

SMILES: COc1cc2c(cc1OC)[C@@H]1Cc3ccc(OC)c(OC)c3CN1CC2 [Compound 1-THP, L-tetrahydropalmatine, reference compound]
- Tail-flick threshold (CD-1 mice [1]; 10 mg/kg): 10 s

SMILES: COc1cc2c(cc1O)-c1c(C)c3ccc(OC)c(OC)c3c[n+]1CC2 [Compound 10]
- antagonist effect on dopamine D2 receptor (dopamine D2 receptor; FLIPR, HEK293T): good antagonist

SMILES: COc1cc2c(cc1O)CC[n+]1cc3c(OC)c(OC)ccc3c(C)c1-2 [Compound 12, dehydrocorybulbine]
- EC50 (μ opioid receptor; dose-effect curve): 100 µM
- agonist effect on μ opioid receptor (μ opioid receptor): a certain agonist
- agonist effect on μ opioid receptor (μ opioid receptor; listed as DHCB): weak agonist
- antagonist activity on D2 compared with THP (dopamine D2 receptor; FLIPR screen, THP positive control): equivalent to that of THP
- antagonist effect on dopamine D2 receptor (dopamine D2 receptor; FLIPR, HEK293T): good antagonist
- antagonist effect on dopamine D2 receptor (dopamine D2 receptor; FLIPR, HEK293T, listed as DHCB): antagonist
- IC50 (dopamine D2 receptor; dose-effect curve, FLIPR, HEK293T): 0.52 µM
- effect on dopamine D1 receptor (Dopamine D1; dose-effect): antagonist
- IC50 (Dopamine D1; dose-effect curve, HEK293T): 2.16 µM
- effect on dopamine D3 receptor (Dopamine D3; dose-effect): antagonist
- IC50 (Dopamine D3; dose-effect curve, HEK293T): 2.4 µM
- effect on dopamine D4 receptor (Dopamine D4; dose-effect): antagonist
- IC50 (Dopamine D4; dose-effect curve, HEK293T): 8.4 µM
- effect on dopamine D5 receptor (Dopamine D5; dose-effect): antagonist
- IC50 (Dopamine D5; dose-effect curve, HEK293T): 0.73 µM
- Tail-flick threshold (CD-1 mice [1]; 5 mg/kg): 9 s
- Tail-flick threshold (CD-1 mice [1]; 10 mg/kg): 12 s
- Tail-flick threshold (CD-1 mice [1]; 40 mg/kg): 17 s
- analgesic effect in tail-flick (CD-1 mice [1]; doses of 5, 10, and 40 mg/kg): significant dose-dependent analgesic effect
- analgesic effect on heat stimulation compared with morphine (CD-1 mice [1]; high dose 40 mg/kg): close to that of small-dose morphine
- analgesic effect in tail-flick compared with controls (CD-1 mice [1]; low dose 10 mg/kg): superior to that of THP
- duration of analgesic effect in tail-flick (CD-1 mice [2]): does not exhibit conspicuous attenuation until four hours have passed
- analgesic effect within phase I (0-5 min), feet-licking time (CD-1 mice [3]; 5 mg/kg and 10 mg/kg): substantial analgesic effect
- analgesic effect within phase II (10-50 min), feet-licking time (CD-1 mice [3]; 10 mg/kg): significant analgesic effect
- analgesic effect on repeated dosing (drug resistance) (mice): unchanged analgesic effect

SMILES: COc1cc2c(cc1O)-c1c(C)c3ccc(OC)c(O)c3c[n+]1CC2 [Compound 14]
- antagonist effect on dopamine D2 receptor (dopamine D2 receptor; FLIPR, HEK293T): good antagonist

SMILES: COc1cc2c(cc1O)CC[n+]1cc3c(O)c(OC)ccc3c(C)c1-2 [Compound 16]
- agonist effect on μ opioid receptor (μ opioid receptor): a certain agonist
- antagonist effect on dopamine D2 receptor (dopamine D2 receptor; FLIPR, HEK293T): good antagonist

SMILES: CN1CC[C@]23c4c5ccc(O)c4O[C@H]2[C@@H](O)C=C[C@H]3[C@H]1C5 [morphine, reference compound]
- Tail-flick threshold (CD-1 mice [1]; 10 mg/kg): 20 s
- duration of analgesic effect in tail-flick (CD-1 mice [2]): weakens quickly two hours later
- analgesic effect on repeated dosing (drug resistance) (mice): began to reduce obviously from the third day
